From publication PMC4522657, “Identification of a DYRK1A Inhibitor that Induces Degradation of the Target Kinase using Co-chaperone CDC37 fused with Luciferase nanoKAZ” (Scientific Reports, 2015)

Experiments:
Assay in all cases: Kinase panel, CaNDY 1 µM
Type in all cases: biochemical
Conditions in all cases: CaNDY 1 µM relative to DMSO
WNK1 = target: T1, WNK1 (Homo sapiens, UniProt Q9H4A3)
T1 construct: purchased Carna Biosciences
From the text: (§1) Detailed information on the assay conditions is available on the website of Carna Biosciences (http://www.carnabio.com/english/index.html; Kobe, Japan). In brief, full-length human recombinant kinases were expressed using a baculovirus expression system as amino-terminal GST-fusion proteins, and purified by glutathione-Sepharose chromatography. The GenBank accession numbers of DYRK1A, DYRK1B, DYRK2, and DYRK3 were NP_001387.2, NP_004705.1, NP_003574.1, and NP_003573.2. Kinase activities were evaluated by Off-chip Mobility Shift Assay after reaction of 1 μM of the substrate DYRKtide-F with ATP (25 μM for DYRK1A, 50 μM for DYRK1B, 10 μM for DYRK2, and 5 μM for DYRK3). For each compound, a DMSO solution was diluted in assay buffer to yield a final concentration of 1% DMSO. After incubation for one hour at room temperature, substrate phosphorylation was analyzed by electrophoretic separation of the substrate and products using a Caliper LC3000 platform (Caliper Life Sciences, Mountain View, CA, USA). The phosphorylated product (P)/(P + substrate) ratio was calculated at each concentration of each small molecule and the percent inhibition was expressed relative to a control assay in the absence of the small molecule. […] The IC50 of each compound was calculated by interpolation on a log-concentration-response curve fitted with a four-parameter logistic equation.
(§2) All kinase assays were carried out at Carna Biosciences. The inhibitory map was made with Kinome Render[36].

KIT(V654A) = target: T2, KIT(V654A) (Homo sapiens, UniProt P10721, V654A)
T2 construct: purchased Carna Biosciences
From the text: as §1, §2

TSSK3 = target: T3, TSSK3 (Homo sapiens, UniProt Q96PN8)
T3 construct: purchased Carna Biosciences
From the text: as §1, §2

MSSK1 = target: T4, MSSK1 (Homo sapiens, UniProt Q9UPE1)
T4 construct: purchased Carna Biosciences
From the text: as §1, §2

TNIK = target: T5, TNIK (Homo sapiens, UniProt Q9UKE5)
T5 construct: purchased Carna Biosciences
From the text: as §1, §2

LCK = target: T6, LCK (Homo sapiens, UniProt P06239)
T6 construct: purchased Carna Biosciences
From the text: as §1, §2

CLK3 = target: T7, CLK3 (Homo sapiens, UniProt P49761)
T7 construct: purchased Carna Biosciences
From the text: as §1, §2

LATS2 = target: T8, LATS2 (Homo sapiens, UniProt Q9NRM7)
T8 construct: purchased Carna Biosciences
From the text: as §1, §2

MARK3 = target: T9, MARK3 (Homo sapiens, UniProt P27448)
T9 construct: purchased Carna Biosciences
From the text: as §1, §2

CDK6/CycD3 = target: T10, CDK6/CycD3 (Homo sapiens, UniProt Q00534)
T10 construct: purchased Carna Biosciences
From the text: as §1, §2

PLK3 = target: T11, PLK3 (Homo sapiens, UniProt Q9H4B4)
T11 construct: purchased Carna Biosciences
From the text: as §1, §2

TAK1-TAB1_Cascade = target: T12, TAK1-TAB1_Cascade (Homo sapiens, UniProt O43318)
T12 construct: purchased Carna Biosciences
From the text: as §1, §2

SGK2 = target: T13, SGK2 (Homo sapiens, UniProt Q9HBY8)
T13 construct: purchased Carna Biosciences
From the text: as §1, §2

HIPK3 = target: T14, HIPK3 (Homo sapiens, UniProt Q9H422)
T14 construct: purchased Carna Biosciences
From the text: as §1, §2

MRCKβ = target: T15, MRCKβ (Homo sapiens, UniProt Q9Y5S2)
T15 construct: purchased Carna Biosciences
From the text: as §1, §2

AKT2 = target: T16, AKT2 (Homo sapiens, UniProt P31751)
T16 construct: purchased Carna Biosciences
From the text: as §1, §2

FGFR1 = target: T17, FGFR1 (Homo sapiens, UniProt P11362)
T17 construct: purchased Carna Biosciences
From the text: as §1, §2

PKCζ = target: T18, PKCζ (Homo sapiens, UniProt Q05513)
T18 construct: purchased Carna Biosciences
From the text: as §1, §2

MUSK = target: T19, MUSK (Homo sapiens, UniProt O15146)
T19 construct: purchased Carna Biosciences
From the text: as §1, §2

EPHA8 = target: T20, EPHA8 (Homo sapiens, UniProt P29322)
T20 construct: purchased Carna Biosciences
From the text: as §1, §2

RET(Y791F) = target: T21, RET(Y791F) (Homo sapiens, UniProt P07949, Y791F)
T21 construct: purchased Carna Biosciences
From the text: as §1, §2

NPM1-ALK = target: T22, NPM1-ALK (Homo sapiens, UniProt P06748+Q9UM73)
T22 construct: purchased Carna Biosciences
From the text: as §1, §2

MET = target: T23, MET (Homo sapiens, UniProt P08581)
T23 construct: purchased Carna Biosciences
From the text: as §1, §2

ALK(R1275Q) = target: T24, ALK(R1275Q) (Homo sapiens, UniProt Q9UM73, R1275Q)
T24 construct: purchased Carna Biosciences
From the text: as §1, §2

EPHA4 = target: T25, EPHA4 (Homo sapiens, UniProt P54764)
T25 construct: purchased Carna Biosciences
From the text: as §1, §2

NEK2 = target: T26, NEK2 (Homo sapiens, UniProt P51955)
T26 construct: purchased Carna Biosciences
From the text: as §1, §2

JNK1 = target: T27, JNK1 (Homo sapiens, UniProt P45983)
T27 construct: purchased Carna Biosciences
From the text: as §1, §2

TSSK1 = target: T28, TSSK1 (Homo sapiens, UniProt Q9BXA7)
T28 construct: purchased Carna Biosciences
From the text: as §1, §2

MST2 = target: T29, MST2 (Homo sapiens, UniProt Q13188)
T29 construct: purchased Carna Biosciences
From the text: as §1, §2

MARK2 = target: T30, MARK2 (Homo sapiens, UniProt Q7KZI7)
T30 construct: purchased Carna Biosciences
From the text: as §1, §2

PKD1 = target: T31, PKD1 (Homo sapiens, UniProt Q15139)
T31 construct: purchased Carna Biosciences
From the text: as §1, §2

MRCKα = target: T32, MRCKα (Homo sapiens, UniProt Q5VT25)
T32 construct: purchased Carna Biosciences
From the text: as §1, §2

MET(Y1235D) = target: T33, MET(Y1235D) (Homo sapiens, UniProt P08581, Y1235D)
T33 construct: purchased Carna Biosciences
From the text: as §1, §2

FRK = target: T34, FRK (Homo sapiens, UniProt P42685)
T34 construct: purchased Carna Biosciences
From the text: as §1, §2

JNK2 = target: T35, JNK2 (Homo sapiens, UniProt P45984)
T35 construct: purchased Carna Biosciences
From the text: as §1, §2

MAP2K3_Cascade = target: T36, MAP2K3_Cascade (Homo sapiens, UniProt P46734)
T36 construct: purchased Carna Biosciences
From the text: as §1, §2

T22 sequence (P06748+Q9UM73 fused): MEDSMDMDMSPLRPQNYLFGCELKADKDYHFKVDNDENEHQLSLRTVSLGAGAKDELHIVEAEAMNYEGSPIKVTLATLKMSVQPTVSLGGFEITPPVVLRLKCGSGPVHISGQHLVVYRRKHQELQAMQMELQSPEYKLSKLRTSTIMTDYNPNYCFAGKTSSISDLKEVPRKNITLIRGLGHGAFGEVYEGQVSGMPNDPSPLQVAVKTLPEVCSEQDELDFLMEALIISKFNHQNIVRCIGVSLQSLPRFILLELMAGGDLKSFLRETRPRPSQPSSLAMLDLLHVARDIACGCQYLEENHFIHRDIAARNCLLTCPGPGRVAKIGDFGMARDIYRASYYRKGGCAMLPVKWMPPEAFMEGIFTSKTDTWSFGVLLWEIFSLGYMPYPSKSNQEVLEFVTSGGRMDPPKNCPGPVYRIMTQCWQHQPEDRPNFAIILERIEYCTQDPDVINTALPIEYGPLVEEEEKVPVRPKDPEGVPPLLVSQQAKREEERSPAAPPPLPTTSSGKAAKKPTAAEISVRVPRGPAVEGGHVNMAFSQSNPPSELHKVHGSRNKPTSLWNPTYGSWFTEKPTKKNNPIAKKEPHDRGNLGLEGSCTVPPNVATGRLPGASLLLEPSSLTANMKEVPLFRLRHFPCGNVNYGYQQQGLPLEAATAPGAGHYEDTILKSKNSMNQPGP
T4 sequence (Q9UPE1 whole entry): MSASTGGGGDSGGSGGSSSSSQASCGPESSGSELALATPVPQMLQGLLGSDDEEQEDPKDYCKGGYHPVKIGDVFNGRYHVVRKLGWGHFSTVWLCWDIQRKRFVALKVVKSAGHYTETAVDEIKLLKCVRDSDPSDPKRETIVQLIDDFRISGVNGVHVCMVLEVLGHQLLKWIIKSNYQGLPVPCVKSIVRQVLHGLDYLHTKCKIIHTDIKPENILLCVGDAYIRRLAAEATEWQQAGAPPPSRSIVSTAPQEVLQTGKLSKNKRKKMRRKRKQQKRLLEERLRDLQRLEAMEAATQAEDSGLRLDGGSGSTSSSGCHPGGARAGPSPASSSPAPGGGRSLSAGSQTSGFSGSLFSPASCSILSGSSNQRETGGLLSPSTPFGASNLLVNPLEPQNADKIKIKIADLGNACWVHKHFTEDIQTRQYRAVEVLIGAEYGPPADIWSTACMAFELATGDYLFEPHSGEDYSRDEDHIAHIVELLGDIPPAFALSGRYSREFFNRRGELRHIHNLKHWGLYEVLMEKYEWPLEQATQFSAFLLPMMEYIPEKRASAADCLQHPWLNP
T28 sequence (Q9BXA7 whole entry): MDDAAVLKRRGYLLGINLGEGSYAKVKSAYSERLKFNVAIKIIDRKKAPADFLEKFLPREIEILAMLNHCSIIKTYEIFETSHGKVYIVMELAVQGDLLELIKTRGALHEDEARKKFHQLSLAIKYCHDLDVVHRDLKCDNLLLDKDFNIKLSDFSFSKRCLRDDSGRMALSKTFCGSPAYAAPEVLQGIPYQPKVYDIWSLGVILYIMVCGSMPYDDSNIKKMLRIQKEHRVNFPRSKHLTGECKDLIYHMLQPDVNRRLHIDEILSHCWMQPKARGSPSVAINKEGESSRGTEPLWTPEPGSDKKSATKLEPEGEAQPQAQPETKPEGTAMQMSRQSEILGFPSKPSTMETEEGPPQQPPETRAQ
T7 sequence (P49761 whole entry): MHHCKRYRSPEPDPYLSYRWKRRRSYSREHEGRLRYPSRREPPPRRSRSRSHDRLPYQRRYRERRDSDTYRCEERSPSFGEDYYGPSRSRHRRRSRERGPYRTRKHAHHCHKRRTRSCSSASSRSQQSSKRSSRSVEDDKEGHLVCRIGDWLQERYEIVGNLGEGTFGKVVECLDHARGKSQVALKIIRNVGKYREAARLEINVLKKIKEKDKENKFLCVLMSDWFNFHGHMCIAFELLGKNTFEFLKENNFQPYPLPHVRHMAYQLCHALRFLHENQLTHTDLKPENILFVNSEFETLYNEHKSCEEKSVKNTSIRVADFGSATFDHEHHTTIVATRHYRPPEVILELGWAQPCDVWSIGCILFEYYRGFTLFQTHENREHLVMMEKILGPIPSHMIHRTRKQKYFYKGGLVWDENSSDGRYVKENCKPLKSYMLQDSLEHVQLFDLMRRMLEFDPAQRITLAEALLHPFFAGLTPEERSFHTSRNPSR
T27 sequence (P45983 whole entry): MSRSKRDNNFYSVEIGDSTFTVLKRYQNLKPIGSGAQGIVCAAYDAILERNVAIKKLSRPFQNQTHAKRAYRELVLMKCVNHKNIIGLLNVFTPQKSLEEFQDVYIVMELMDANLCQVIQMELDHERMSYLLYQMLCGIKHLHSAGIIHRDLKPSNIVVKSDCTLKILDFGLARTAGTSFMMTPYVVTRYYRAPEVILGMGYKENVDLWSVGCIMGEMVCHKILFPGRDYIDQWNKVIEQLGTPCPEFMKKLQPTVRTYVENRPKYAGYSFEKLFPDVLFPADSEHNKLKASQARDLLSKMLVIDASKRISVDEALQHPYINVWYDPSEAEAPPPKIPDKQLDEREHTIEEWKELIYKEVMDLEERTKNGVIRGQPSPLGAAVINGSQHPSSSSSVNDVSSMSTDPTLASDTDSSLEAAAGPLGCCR
T16 sequence (P31751 whole entry): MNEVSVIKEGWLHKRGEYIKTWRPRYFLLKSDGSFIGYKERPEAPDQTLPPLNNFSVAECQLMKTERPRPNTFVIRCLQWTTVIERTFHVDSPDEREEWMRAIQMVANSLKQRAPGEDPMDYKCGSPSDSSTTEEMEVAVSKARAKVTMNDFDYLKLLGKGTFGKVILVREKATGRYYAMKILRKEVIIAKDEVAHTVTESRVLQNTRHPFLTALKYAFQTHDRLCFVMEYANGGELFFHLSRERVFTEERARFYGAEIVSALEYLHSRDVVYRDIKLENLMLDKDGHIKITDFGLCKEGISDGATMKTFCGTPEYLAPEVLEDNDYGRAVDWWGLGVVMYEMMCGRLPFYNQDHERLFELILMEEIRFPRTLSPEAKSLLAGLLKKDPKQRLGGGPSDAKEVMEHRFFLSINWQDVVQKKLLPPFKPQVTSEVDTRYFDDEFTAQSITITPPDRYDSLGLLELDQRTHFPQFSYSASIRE
T14 sequence (Q9H422 whole entry): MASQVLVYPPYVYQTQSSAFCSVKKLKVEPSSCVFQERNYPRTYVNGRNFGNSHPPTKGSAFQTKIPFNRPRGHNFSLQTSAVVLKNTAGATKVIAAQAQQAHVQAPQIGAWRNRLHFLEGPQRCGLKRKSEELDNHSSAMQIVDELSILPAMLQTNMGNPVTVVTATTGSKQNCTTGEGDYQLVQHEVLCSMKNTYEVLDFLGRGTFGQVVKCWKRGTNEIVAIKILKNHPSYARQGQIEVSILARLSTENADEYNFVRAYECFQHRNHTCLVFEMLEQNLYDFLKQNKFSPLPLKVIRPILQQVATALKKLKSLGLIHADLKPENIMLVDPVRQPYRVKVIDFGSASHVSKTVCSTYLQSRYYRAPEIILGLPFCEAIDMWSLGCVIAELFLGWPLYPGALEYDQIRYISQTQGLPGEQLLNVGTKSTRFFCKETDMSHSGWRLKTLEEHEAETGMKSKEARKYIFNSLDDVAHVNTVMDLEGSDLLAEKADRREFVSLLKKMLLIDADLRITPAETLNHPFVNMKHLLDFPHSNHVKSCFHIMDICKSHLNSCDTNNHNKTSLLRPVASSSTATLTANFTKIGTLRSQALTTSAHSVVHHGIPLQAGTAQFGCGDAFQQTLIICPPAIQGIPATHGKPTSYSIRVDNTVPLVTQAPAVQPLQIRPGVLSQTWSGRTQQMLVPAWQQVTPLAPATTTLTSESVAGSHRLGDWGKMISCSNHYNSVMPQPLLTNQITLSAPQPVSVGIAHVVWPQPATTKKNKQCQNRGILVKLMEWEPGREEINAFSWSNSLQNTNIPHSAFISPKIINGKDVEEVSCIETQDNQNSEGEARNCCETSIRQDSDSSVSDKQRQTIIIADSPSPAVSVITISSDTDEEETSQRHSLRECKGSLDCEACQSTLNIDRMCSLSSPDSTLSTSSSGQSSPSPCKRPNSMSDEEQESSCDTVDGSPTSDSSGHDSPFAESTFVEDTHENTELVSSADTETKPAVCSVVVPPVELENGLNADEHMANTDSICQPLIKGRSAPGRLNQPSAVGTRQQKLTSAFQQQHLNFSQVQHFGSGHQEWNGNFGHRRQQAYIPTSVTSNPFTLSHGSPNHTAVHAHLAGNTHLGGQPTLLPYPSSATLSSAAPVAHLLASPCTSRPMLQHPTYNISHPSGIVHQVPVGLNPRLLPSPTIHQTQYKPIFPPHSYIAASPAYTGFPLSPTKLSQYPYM
T35 sequence (P45984 whole entry): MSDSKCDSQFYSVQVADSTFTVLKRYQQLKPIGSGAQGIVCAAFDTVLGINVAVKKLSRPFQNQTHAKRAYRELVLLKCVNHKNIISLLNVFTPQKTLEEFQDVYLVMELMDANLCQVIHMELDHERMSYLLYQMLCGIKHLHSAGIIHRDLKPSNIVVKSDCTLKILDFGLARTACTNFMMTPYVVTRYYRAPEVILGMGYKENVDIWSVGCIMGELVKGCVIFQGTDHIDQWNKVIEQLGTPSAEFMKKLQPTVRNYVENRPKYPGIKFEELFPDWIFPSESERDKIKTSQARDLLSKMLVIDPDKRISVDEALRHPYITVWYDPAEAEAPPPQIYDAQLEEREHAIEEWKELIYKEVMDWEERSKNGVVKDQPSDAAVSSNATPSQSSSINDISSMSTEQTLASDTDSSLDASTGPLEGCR
T12 sequence (O43318 with tags, fused parts or gaps limits assumed): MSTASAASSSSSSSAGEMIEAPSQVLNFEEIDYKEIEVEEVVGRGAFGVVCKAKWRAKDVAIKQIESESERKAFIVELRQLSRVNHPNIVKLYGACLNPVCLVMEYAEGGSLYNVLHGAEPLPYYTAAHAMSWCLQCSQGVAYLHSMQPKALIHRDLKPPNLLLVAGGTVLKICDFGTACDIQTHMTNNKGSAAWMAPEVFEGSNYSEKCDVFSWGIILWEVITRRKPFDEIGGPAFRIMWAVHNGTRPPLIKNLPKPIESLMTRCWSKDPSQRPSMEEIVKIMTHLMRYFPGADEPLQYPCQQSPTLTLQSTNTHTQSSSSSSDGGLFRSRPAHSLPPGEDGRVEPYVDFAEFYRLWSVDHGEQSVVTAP

SMILES: [H]/N=C1/NC(=O)C(=Cc2ccc3c(c2)CCO3)S1 [CaNDY, (Z)-5-[(2,3-dihydrobenzofuran-5-yl)methylene]-2-iminothiazolidin-4-one]
- %Activity (WNK1): 98.8%
- remaining activity at 1 µM (KIT(V654A)): 98.5%
- remaining activity at 1 µM (TSSK3): 110%
- remaining activity at 1 µM (MSSK1): 98%
- remaining activity at 1 µM (TNIK): 60%
- remaining activity at 1 µM (LCK): 99%
- %Activity (CLK3): 16.5%
- %Activity (LATS2): 98.1%
- remaining activity at 1 µM (MARK3): 95%
- remaining activity at 1 µM (CDK6/CycD3): 97.1%
- remaining activity at 1 µM (PLK3): 95.9%
- remaining activity at 1 µM (TAK1-TAB1_Cascade): 104%
- remaining activity at 1 µM (SGK2): 88.6%
- remaining activity at 1 µM (HIPK3): 22.4%
- remaining activity at 1 µM (MRCKβ): 82.5%
- remaining activity at 1 µM (AKT2): 105%
- remaining activity at 1 µM (FGFR1): 105%
- remaining activity at 1 µM (PKCζ): 95.9%
- remaining activity at 1 µM (MUSK): 98.4%
- remaining activity at 1 µM (EPHA8): 101%
- remaining activity at 1 µM (RET(Y791F)): 100%
- remaining activity at 1 µM (NPM1-ALK): 97.8%
- %Activity (MET): 97.7%
- remaining activity at 1 µM (ALK(R1275Q)): 98.5%
- remaining activity at 1 µM (EPHA4): 102%
- remaining activity at 1 µM (NEK2): 95.3%
- %Activity (JNK1): 102.4%
- remaining activity at 1 µM (TSSK1): 94.5%
- remaining activity at 1 µM (MST2): 103%
- remaining activity at 1 µM (MARK2): 97.5%
- remaining activity at 1 µM (PKD1): 72.9%
- remaining activity at 1 µM (MRCKα): 128%
- %Activity (MET(Y1235D)): 99.0%
- remaining activity at 1 µM (FRK): 102%
- %Activity (JNK2): 102.6%
- remaining activity at 1 µM (MAP2K3_Cascade): 101%
